The test system of the first test is HCV replication. Put plainly: HCV replicon assay (luciferase) in ET (Huh-lucubineo-ET) cell line. The class given is cell-based. The following applies: Hepatitis C virus, tested at 5 μM; ET replicon cells; luciferase activity measured 48-72 hours later; relative to no compound control. On the procedure:
A cell line, ET (Huh-lucubineo-ET) was used for screening of compounds of the present invention for inhibiting HCV replication. The ET cell line was stably transfected with RNA transcripts harboring a I389luc-ubi-neo/NS3-3′/ET; replicon with firefly luciferase-ubiquitin-neomycin phosphotransferase fusion protein and EMCV-IRES driven NS3-5B polyprotein containing the cell culture adaptive mutations (E1202G; T12801; K1846T) (Krieger at al, 2001 and unpublished). The ET cells were grown in DMEM (Dulbeco's Modified Eagle's Medium), supplemented with 10% fetal calf serum, 2 mM Glutamine, Penicillin (100 IU/mL)/Streptomycin (100 μg/mL), 1× nonessential amino acids, and 250 μg/mL G418 (“Geneticin”). They were all available through Life Technologies (Bethesda, Md.). The cells were plated at 0.5-1.0×10^4 cells/well in the 96 well plates and incubated for 24 hrs before adding testing compounds. Then the compounds were added to the cells to achieve a final concentration of 0.1 nM to 50 μM and a final DMSO concentration of 0.5%. Luciferase activity were measured 48-72 hours later by adding a lysis buffer and the substrate (Catalog number Glo-lysis buffer E2661 and Bright-Glo luciferase system E2620 Promega, Madison, Wis.). Cells should not be too confluent during the assay. Percent inhibition of replication was plotted relative to no compound control. Under the same condition, cytotoxicity of the compounds was determined using cell proliferation reagent, WST-1 (Roche, Germany). The compounds showing antiviral activities, but no significant cytotoxicities were chosen to determine EC50 and TC50. For these determinations, a 10 point 2-fold serial dilution for each compound was used, which spans a concentration range of 1000 fold. EC50 and similarly TC50 values were calculated by fitting % inhibition at each concentration to the following equation:
% inhibition=100%/[(IC50/[I])^b+1]
where b is Hill's coefficient.
In some preferred embodiments compounds of Formula I will have a % inhibition of at least 20% when tested at 5 μM. In other embodiments the compounds of Formula I will have a % inhibition of at least 50% when tested at 5 μM.
A general note: In antiviral work, replicon cells carry a viral genome segment that copies itself.
Consider `Cc1cccc2[nH]c(Cc3ccc(NC(=O)[C@@H]4CSC(c5ccncc5)N4C(=O)OCc4ccccc4)cc3)nc12` (some centres unmarked) [Compound 7084, 4-[4-(4-Methyl-1H-benzoimidazol-2-ylmethyl)-phenylcarbamoyl]-2-pyridin-4-yl-thiazolidine-3-carboxylic acid benzyl ester], for which the inhibition at 5 µM was determined as 14.2%.
`O=C(Nc1nc(-c2ccccc2)cs1)[C@@H]1CSC2(CCOCC2)N1C(=O)OCc1ccccc1` [Compound 7094, 3-(4-Phenyl-thiazol-2-ylcarbamoyl)-8-oxa-1-thia-4-aza-spiro[4.5]decane-4-carboxylic acid benzyl ester] had an inhibition at 5 µM of 88%.
The same measure, in the same setting: the value for `O=C(NC1CC1)c1ccc(-c2csc(NC(=O)[C@@H]3CC[C@H](c4ccncc4)N3C(=O)OCc3ccccc3)n2)cc1` [Compound 7003, (2S,5R)-2-[4-(4-Cyclopropylcarbamoyl-phenyl)-thiazol-2-ylcarbamoyl]-5-pyridin-4-yl-pyrrolidine-1-carboxylic acid benzyl ester] was 100%; that for `COc1ccc(CNC(=O)Cc2cccc(NC(=O)[C@@H]3CSC(c4ccncc4)N3C(=O)OCc3ccccc3)c2)cc1` (some centres unmarked) [Compound 7128, 4-{3-[(4-Methoxy-benzylcarbamoyl)-methyl]-phenylcarbamoyl}-2-pyridin-4-yl-thiazolidine-3-carboxylic acid benzyl ester] was 97.5%.
The compound `O=C(Cc1cccc(NC(=O)[C@@H]2CSC(c3ccncc3)N2C(=O)OCc2ccccc2)c1)NCc1ccccc1` (some centres unmarked) [Compound 7116, 4-[3-(Benzylcarbamoyl-methyl)-phenylcarbamoyl]-2-pyridin-4-yl-thiazolidine-3-carboxylic acid benzyl ester] came in with an inhibition at 5 µM of 84.9%.
`COc1ccccc1C1SC[C@@H](C(=O)Nc2nc(-c3ccc(C(=O)NC4CC4)cc3)cs2)N1C(=O)OCc1ccccc1` (mixture of isomers) [Compound 7047, (R)-4-[4-(4-Cyclopropylcarbamoyl-phenyl)-thiazol-2-ylcarbamoyl]-2-(2-methoxy-phenyl)-thiazolidine-3-carboxylic acid benzyl ester] displayed an inhibition at 5 µM of 99.6%.
On to `O=C(NC1CC1)c1ccc(-c2csc(NC(=O)[C@@H]3CSC(CCCCC(=O)N4CCCCC4)N3C(=O)OCc3ccccc3)n2)cc1` (stereo in doubt) [Compound 7102, 4-[4-(4-Cyclopropylcarbamoyl-phenyl)-thiazol-2-ylcarbamoyl]-2-(5-oxo-5-piperidin-1-yl-pentyl)-thiazolidine-3-carboxylic acid benzyl ester], for which 5 µM produced 100% inhibition.
Regarding `CC(C)(C)OC(=O)NCc1ccc(NC(=O)[C@@H]2CSC(c3ccncc3)N2C(=O)OCc2ccccc2)cc1` (some centres unmarked) [Compound 7078, 4-[4-(tert-Butoxycarbonylamino-methyl)-phenylcarbamoyl]-2-pyridin-4-yl-thiazolidine-3-carboxylic acid benzyl ester], at 5 µM the inhibition was 35.6%.
`O=C(NC1CC1)c1ccc(NC(=O)[C@@H]2CSC(C3CCOCC3)N2C(=O)OCc2ccccc2)cc1` (some centres unmarked) [Compound 7107, 4-(4-Cyclopropylcarbamoyl-phenylcarbamoyl)-2-(tetrahydro-pyran-4-yl)-thiazolidine-3-carboxylic acid benzyl ester] had an inhibition at 5 µM of 10%.
`O=C(NCc1ccccc1)c1ccc(NC(=O)[C@@H]2CSC(c3ccncc3)N2C(=O)OCc2ccccc2)cc1` (some centres unmarked) [Compound 7075, 4-(4-Benzylcarbamoyl-phenylcarbamoyl)-2-pyridin-4-yl-thiazolidine-3-carboxylic acid benzyl ester] came in with an inhibition at 5 µM of 21.3%.
Turning to `O=C(Nc1nc(-c2ccccc2)cs1)[C@@H]1CSC(c2ccncc2)N1C(=O)OCc1ccccc1` (some centres unmarked) [Compound 7026, 4-(4-Phenyl-thiazol-2-ylcarbamoyl)-2-pyridin-4-yl-thiazolidine-3-carboxylic acid benzyl ester], 5 µM produced 89.1% inhibition.
The compound `CC1(c2ccncc2)SC[C@@H](C(=O)Nc2nc(-c3ccc(C(=O)NC4CC4)cc3)cs2)N1C(=O)OCc1ccccc1` (stereo in doubt) [Compound 7096, 4-[4-(4-Cyclopropylcarbamoyl-phenyl)-thiazol-2-ylcarbamoyl]-2-methyl-2-pyridin-4-yl-thiazolidine-3-carboxylic acid benzyl ester] registered an inhibition at 5 µM of 99.9%.
`COc1ccc(Cc2cnc(NC(=O)[C@@H]3CSC(c4ccncc4)N3C(=O)OCc3ccccc3)s2)cc1` (stereo in doubt) [Compound 7137, 4-[5-(4-Methoxy-benzyl)-thiazol-2-ylcarbamoyl]-2-pyridin-4-yl-thiazolidine-3-carboxylic acid benzyl ester]: the inhibition at 5 µM was found to be 17.1%.
On to `O=C(Cc1cccc(NC(=O)[C@@H]2CSC(c3ccncc3)N2C(=O)OCc2ccccc2)c1)NCCc1ccccc1` (some centres unmarked) [Compound 7136, 4-[3-(Phenethylcarbamoyl-methyl)-phenylcarbamoyl]-2-pyridin-4-yl-thiazolidine-3-carboxylic acid benzyl ester], for which testing at 5 µM gave an inhibition of 90%.
Regarding `O=C(NC1CC1)c1ccc(-c2csc(NC(=O)[C@@H]3CSC(C4CCOC4)N3C(=O)OCc3ccccc3)n2)cc1` (some centres unmarked) [Compound 7122, 4-[4-(4-Cyclopropylcarbamoyl-phenyl)-thiazol-2-ylcarbamoyl]-2-(tetrahydro-furan-3-yl)-thiazolidine-3-carboxylic acid benzyl ester], the inhibition at 5 µM turned out to be 100%.
`O=C(Nc1ccc(CNS(=O)(=O)c2ccc(-c3ccccc3)cc2)cc1)[C@@H]1CSC(c2ccncc2)N1C(=O)OCc1ccccc1` (stereo in doubt) [Compound 7073, 4-{4-[(Biphenyl-4-sulfonylamino)-methyl]-phenylcarbamoyl}-2-pyridin-4-yl-thiazolidine-3-carboxylic acid benzyl ester] gave an inhibition at 5 µM of 65.3%.
`O=C(NC1CC1)c1ccc(-c2csc(NC(=O)[C@@H]3CSC(c4ccc(F)cc4)N3C(=O)OCc3ccccc3)n2)cc1` (mixture of isomers) [Compound 7013, (R)-4-[4-(4-Cyclopropylcarbamoyl-phenyl)-thiazol-2-ylcarbamoyl]-2-(4-fluoro-phenyl)-thiazolidine-3-carboxylic acid benzyl ester]: testing at 5 µM gave an inhibition of 99.7%.
Regarding `CC(=O)c1cccc(C2SC[C@@H](C(=O)Nc3nc(-c4ccc(C(=O)NC5CC5)cc4)cs3)N2C(=O)OCc2ccccc2)c1` (some centres unmarked) [Compound 7120, 2-(3-Acetyl-phenyl)-4-[4-(4-cyclopropylcarbamoyl-phenyl)-thiazol-2-ylcarbamoyl]-thiazolidine-3-carboxylic acid benzyl ester], the inhibition at 5 µM was determined as 100%.
Consider `O=C(NC1CC1)c1ccc(-c2csc(NC(=O)[C@@H]3Cc4ccccc4CN3C(=O)OCc3ccccc3)n2)cc1` [Compound 7002, (S)-3-[4-(4-Cyclopropylcarbamoyl-phenyl)-thiazol-2-ylcarbamoyl]-3,4-dihydro-1H-isoquinoline-2-carboxylic acid benzyl ester], for which at 5 µM the inhibition was 97.5%.
`CCCC(C)C(=O)N1C(C2CCOCC2)SC[C@H]1C(=O)Nc1nc(-c2ccc(C(=O)NC3CC3)cc2)cs1` (stereo in doubt) [Compound 7103, 3-(2-Methyl-pentanoyl)-2-(tetrahydro-pyran-4-yl)-thiazolidine-4-carboxylic acid [4-(4-cyclopropylcarbamoyl-phenyl)-thiazol-2-yl]-amide] showed an inhibition at 5 µM of 99.8%.
For `O=C(NC1CC1)c1ccc(-c2csc(NC(=O)[C@@H]3CSC(c4ccccc4F)N3C(=O)OCc3ccccc3)n2)cc1` (mixture of isomers) [Compound 7037, (R)-4-[4-(4-Cyclopropylcarbamoyl-phenyl)-thiazol-2-ylcarbamoyl]-2-(2-fluoro-phenyl)-thiazolidine-3-carboxylic acid benzyl ester], the inhibition at 5 µM was determined as 100%.
With `CN1CCC2(CC1)SC[C@@H](C(=O)Nc1nc(-c3ccc(C(=O)NC4CC4)cc3)cs1)N2C(=O)OCc1ccccc1` [Compound 7114, 3-[4-(4-Cyclopropylcarbamoyl-phenyl)-thiazol-2-ylcarbamoyl]-8-methyl-1-thia-4,8-diaza-spiro[4.5]decane-4-carboxylic acid benzyl ester], 5 µM produced 100% inhibition.

Staying with this test, now noted: tested at 5 μM; ET replicon cells; luciferase activity measured 48-72 hours later; relative to no compound control; 5 µM.
Regarding `CC(C)(C)OC(=O)N1C(c2cccnc2)SC[C@H]1C(=O)Nc1nc(-c2ccc(C(=O)NC3CC3)cc2)cs1` (single isomer, unassigned) [Compound 7055, 4-[4-(4-Cyclopropylcarbamoyl-phenyl)-thiazol-2-ylcarbamoyl]-2-pyridin-3-yl-thiazolidine-3-carboxylic acid tert-butyl ester], the “% inhibition at 5 μM” value came out at 99.1%.

As usually defined, the inhibition is the share of the control response that was lost under treatment. The % inhibition is the share of the control response that was lost under treatment.

(Values after patent publication US20080181866A1, “Amido Anti-viral Compounds” (Genelabs Technologies, Inc., priority 2006, published 2008).)
